Results: patent US20050222040A1, “Vertebrate peptide modulators of lipid metabolism” (BLM Group, Inc., priority 2004, published 2005)
Non-standard residues stand in square brackets, D forms with d. No end group written: not given here. pGlu = O=C1CC[C@@H](C(=O)O)N1

System: human adipocytes
Experiment: Glycerol release assay (lipolysis) in differentiated human adipocytes
Assay type: cell-based
Details: for Percent Glycerol Release over Background / glycerol releasing activity (result in words): human adipocytes in vitro; for lipid mobilization activity of insect AKH/HTP peptides and alanine walk analogs (result in words): Example 2, Table 8 peptides; for glycerol releasing activity (result in words): 100 nanomolar, 1 micromolar and 10 micromolar
Description: Two assay methods, giving equivalent results, can be used. The results disclosed in Example 2, below, were obtained using an in vitro assay based on measurement of glycerol released into the medium. An alternative assay system, based on the release of radioisotope from adipocytes incubated overnight with 9,10 ^3H-palmitate, can also be used.
Human subcutaneous preadipocytes, obtained by liposuction (Zen-Bio, Inc. Research Triangle Park, N.C.), are cultured for 3 weeks in 96-well plates in Differentiation medium (DMEM/Hams F10 [1/1, v/v], 15 mM Hepes buffer, 3% FBS, Penicillin/Streptomycin, 33 uM Biotin 17 uM Pantothenate, 100 nM human insulin, 0.5 uM Dexamethasone, 0.2 mM IBMX, and 10 uM thiazolidinedione.
The assay based on glycerol release is performed by removing the culture medium from differentiated cells, treating the cells with 0.1 ml of the test compounds at the appropriate doses in adipocyte medium (DMEM/Hank's F-10, 15 mM HEPES buffer, 3% FBS, penicillin/streptomycin) followed by incubation at 37 degrees Celsius for 2-5 hours. Isoproterenol is used as positive control and all assays are done in triplicate. At the end of the time points, 0.1 ml of the conditioned media from each well is transferred to a well of a new plate. Glycerol is quantified using standard enzymatic methods, with absorption by oxidized quinoneimine at 540 nm. Briefly, lipolytic activity can be assayed simply by the measurement of glycerol released into the medium since glycerokinase activity is not present in adipocytes (Carpene, C., Methods in Molecular Biology 155: Adipose Tissue Protocols, 1999). Glycerol released to the medium is phosphorylated by adenosine triphosphate (ATP) forming glycerol-1-phosphate (G-1-P) and adenosine-5′-diphosphate (ADP) in the reaction catalyzed by glycerol kinase. G-1-P is then oxidized by glycerol phosphate oxidase to dihydroxyacetone phosphate (DAP) and hydrogen peroxide (H2O2). […] The increase in absorbance at 540 nm is directly proportional to glycerol concentration of the sample.

[1] = peptide concentration 1 micro M
[2] = peptide concentration 10 micro M

| Compound | Percent Glycerol Release over Background (peptide concentration 100 nM) | Percent Glycerol Release over Background [1] | Percent Glycerol Release over Background [2] | lipid mobilization activity of insect AKH/HTP peptides and alanine walk analogs (result in words) | glycerol releasing activity (result in words) |
| --- | --- | --- | --- | --- | --- |
| QLNFTASWG [Peptide 52] | 0.9% | 13.2% | 17% | – | – |
| pGlu-Leu-Asn-Phe-Thr-Ala-Ser-Trp-Gly ([pGlu]LNFTASWG; listed as Homo sapiens) [Peptide 51] | 3.8% | 24.5% | 34.9% | – | – |
| pGlu-Val-Asn-Phe-Ser-Pro-Gly-Trp-Gly-ThrNH2 ([pGlu]VNFSPGWGT-NH2; SMILES CC(C)[C@H](NC(=O)[C@@H]1CCC(=O)N1)C(=O)N[C@@H](CC(N)=O)C(=O)N[C@@H](Cc1ccccc1)C(=O)N[C@@H](CO)C(=O)N1CCC[C@H]1C(=O)NCC(=O)N[C@@H](Cc1c[nH]c2ccccc12)C(=O)NCC(=O)N[C@H](C(N)=O)[C@@H](C)O; listed as Blaberus discoidalis) [SEQ ID NO: 19, reference compound] | – | – | – | active | – |
| CC(C)NCC(O)c1ccc(O)c(O)c1 (stereo not shown) [Iso, Isoproterenol, reference compound] | 213% | 262% | 206% | – | – |
| QLNFTASW [Peptide 53] | 3.8% | 36.8% | 18.9% | – | – |
| pGlu-Leu-Asn-Phe-Ser-Thr-Gly-TrpNH2 ([pGlu]LNFSTGW-NH2; SMILES CC(C)C[C@H](NC(=O)[C@@H]1CCC(=O)N1)C(=O)N[C@@H](CC(N)=O)C(=O)N[C@@H](Cc1ccccc1)C(=O)N[C@@H](CO)C(=O)N[C@H](C(=O)NCC(=O)N[C@@H](Cc1c[nH]c2ccccc12)C(N)=O)[C@@H](C)O; listed as Schistocerca gregaria) [SEQ ID NO: 17, reference compound] | – | – | – | active | – |
| QLNFTASW-NH2 [Peptide 54] | 2.8% | 4.7% | 8.5% | – | – |
| pGlu-Leu-Thr-Phe-Thr-Ser-Ser-Trp-GlyNH2 ([pGlu]LTFTSSWG-NH2; SMILES CC(C)C[C@H](NC(=O)[C@@H]1CCC(=O)N1)C(=O)N[C@H](C(=O)N[C@@H](Cc1ccccc1)C(=O)N[C@H](C(=O)N[C@@H](CO)C(=O)N[C@@H](CO)C(=O)N[C@@H](Cc1c[nH]c2ccccc12)C(=O)NCC(N)=O)[C@@H](C)O)[C@@H](C)O; listed as Manduca sexta) [SEQ ID NO: 23, reference compound] | – | – | – | active | – |
| QLNFTASWG-NH2 [Peptide 72] | 18% | 11.3% | 18.9% | – | – |
| pGlu-Leu-Asn-Phe-Thr-Ala-Ser-Trp-GlyNH2 ([pGlu]LNFTASWG-NH2; SMILES CC(C)C[C@H](NC(=O)[C@@H]1CCC(=O)N1)C(=O)N[C@@H](CC(N)=O)C(=O)N[C@@H](Cc1ccccc1)C(=O)N[C@H](C(=O)N[C@@H](C)C(=O)N[C@@H](CO)C(=O)N[C@@H](Cc1c[nH]c2ccccc12)C(=O)NCC(N)=O)[C@@H](C)O; listed as Homo sapiens) [Peptide 73] | 0% | 0.9% | 3.8% | – | low activity |
| pGlu-Leu-Asn-Phe-Thr-Pro-Asn-Trp-Gly-ThrNH2 ([pGlu]LNFTPNWGT-NH2; SMILES CC(C)C[C@H](NC(=O)[C@@H]1CCC(=O)N1)C(=O)N[C@@H](CC(N)=O)C(=O)N[C@@H](Cc1ccccc1)C(=O)N[C@H](C(=O)N1CCC[C@H]1C(=O)N[C@@H](CC(N)=O)C(=O)N[C@@H](Cc1c[nH]c2ccccc12)C(=O)NCC(=O)N[C@H](C(N)=O)[C@@H](C)O)[C@@H](C)O; listed as Locusta migratoria) [SEQ ID NO: 18, reference compound] | – | – | – | active | – |
| pGlu-Leu-Asn-Phe-Thr-Ala-Ser-TrpNH2 ([pGlu]LNFTASW-NH2; SMILES CC(C)C[C@H](NC(=O)[C@@H]1CCC(=O)N1)C(=O)N[C@@H](CC(N)=O)C(=O)N[C@@H](Cc1ccccc1)C(=O)N[C@H](C(=O)N[C@@H](C)C(=O)N[C@@H](CO)C(=O)N[C@@H](Cc1c[nH]c2ccccc12)C(N)=O)[C@@H](C)O; listed as Homo sapiens) [Peptide 55] | 1.9% | 5.7% | 13.2% | – | low activity |
| pGlu-Leu-Asn-Phe-Thr-Ala-Ser-Trp ([pGlu]LNFTASW; listed as Homo sapiens) [Peptide 60] | – | – | – | – | no measurable activity |
